Assays:
IL-12 [1] = assay: Gene expression of IL-12 in human synoviocytes (PCR Real Time); format: cell-based; conditions: 3 days of treatment, FIG. 2: 0.5 mg/ml, vs control treated with non-sulfated HA 200 KD
Procedure: Human synoviocytes previously expanded in vitro and maintained in a culture at 37° C. with a medium of DMEM containing 10% of FCS, were seeded at a concentration of 20,000 cells per well (synoviocytes are cells capable of producing various types of cytokines, and are therefore normally used for this type of experimental test). […] After 3 days of treatment, the PCR Real Time was effected to evaluate the gene expression of IL-10 and IL-12: the cell RNA was extracted using the “Trizol” method, following the indications of the supplier (TRIZOL reagent, LIFE Technologies, GIBCO BRL). In short, the cells were lysed by the addition of 1.0 ml of Trizol and the total RNA was quantified by measuring its absorbance at 260 nm. The appropriate primers were selected for each gene to be amplified, using the software Primer3 (Roche Molecular Diagnostics, Pleasanton, Calif., USA). The gene expression was evaluated by means of PCR Real Time effected with a Rotor-gene TM5500 (Corbett research, Sydney, Australia). The PCR reactions were effected using primers at […] and SYBR Green (Invitroge, Carlsbad, Calif., USA) at 40 cycles of 15 s at 95° C., and 1 min. at 60° C. The value of “Fluorescence thresholds (Ct)” was automatically determined by the software, evaluating an amplification coefficient for the genes studied between 92 and 110%. […]

TNF receptor = assay: Inhibition of the binding of 125I-TNF to its receptor in U937 cells (Radioligand Binding); set-up: species or system human; conditions: 125I-TNF 0.028 nM, sample 1 mg/ml, 4° C. 3 hours, medium and low MW
Excerpt: These experiments were effected to evaluate the effectiveness of the samples tested (prepared according to Examples 1-4) on the capacity of inhibiting the binding of TNF to its receptor expressed by cells of the I.S. normally used in vitro for this type of experiment, carried out with iodinated cytokine components for an evaluation in Radioligand Binding assays. The experimental procedure was effected as described in Baglioni C. et al., J Biol Chem, 1985, 260:13395-13397. In short, the line of human histiocytes of the lymphoma U937 was used, with characteristics of monocytes sensitive to the cytotoxic activity of TNF, expressing its relative receptor. […] At the end of the incubation, the cells were centrifuged with dibutylphthalate/dinonylphthalate 2/1 and the pellet obtained was counted in a γ-counter.

[2] = tested on: Herpes Simplex Virus-1 (HSV-1: KOS, F and McIntyre strain); assay: Inhibition of viral cytopathogenicity in E6SM fibroblast cells, HSV-1; format: cell-based; conditions: 2nd day of incubation, numbers only in FIG. 10
[3] = tested on: Vesicular stomatitis virus: VSV; format: cell-based
[4] = Hydrating and protective activity of creams on the forearm (corneometer, Visioscan); format: in vivo; conditions: human subjects
Procedure: 20 human subjects aged between 18 and 70 years, with no skin pathologies and pharmacological treatment underway, were treated daily with certain and constant quantities of the products tested, at the level of the forearm. The experimental products were: control: consisting of a hydrating base cream base cream (as control) containing HA 200 KD 01% base cream (as control) containing HAS3 01%, prepared according to Example 1-2 […]

IL-12 [5] = assay: Protein synthesis of IL-12 in human PBMC (SearchLight array); conditions: not stimulated or stimulated with LPS or PHA (10 μg/ml), 24 hours, FIG. 8: 1 mg/ml, vs HA
Procedure: For these experimentations, mononucleate cells of human peripheral blood (PBMC) were adopted, deriving from various donors for evaluating the effect of HAS on the production of the cytokines listed above, using:
The separation of the PBMC (Bøyum A., Scand J Clin Lab Invest 21 Suppl, 1968, 97:77-89) was effected using the product Ficoll-Paque PLUS (GE Healthcare) and following the protocol indicated by the supplier. At day zero 100,000 cells were plated per well (using plates with 96 wells) in 200 μl of medium RPMI 1640, to which 10% of fetal bovine serum, HEPES 10 mM, Glutamine 2 mM, 1% Penicillin-Streptomycin 100 U/ml, had been added. […] The cells were treated separately with the three compounds at a concentration of 0.1 mg/ml or 1 mg/ml. After 24 hours of incubation at 37° C. (5% CO2), 100 μl of supernatant were taken from each well in order to analyze the production of IL-2, IL-7, IL-10 and IL-12.
The quantification of the inflammation mediators was effected by means of the SearchLight® technology, using a Custom Human 9-flex Array plate following the protocol indicated by the supplier in the technical card.

sulfated hyaluronic acid degree 3 [HAS3]
gene expression of IL-12 (synthesis of its mRNA) (IL-12 [1]): halving the synthesis of its mRNA | inhibition of the binding of TNF to its receptor (TNF receptor): 100% | antiviral activity (inhibition of the cytopathogenicity of the virus) vs HSV-1 [2]: powerful antiviral action | antiviral activity (inhibition of the cytopathogenicity of the virus) vs VSV [3]: very powerful antiviral activity | skin roughness index ([4]; after 7 days of treatment, base cream containing HAS3 01%, with respect to the controls): significantly diminished | hydrating effect of the skin (corneometer) ([4]; daily, T7 vs T0, base cream containing HAS3 01%, vs base cream and cream containing HA): greater hydrating effect | synthesis of IL-12 (IL-12 [5]): significantly reducing

— US11198741B2, “Medicines for topic use based on sulfated hyaluronic acid as activating or inhibiting agent of the cytokine activity” (Fidia Farmaceutici S.p.A., priority 2009, dated 2021)
